A short description of series [1]: Solubility. In kind it is physicochemical.
Series [2] concerns the target T1, saccharase (Sus scrofa, UniProt P56729).
T1 construct: from tissue; host or cells: mucous membrane of the small intestine of the pig, solubilized according to Borgstrom and Dahlquist 1958
As to the kind of experiment: In vitro saccharase test. Particulars: for saccharase inhibitor specific activity: sucrose, pH 6.0, 35° C. In kind it is biochemical, pig. The protocol:
One saccharase inhibitor unit (SIU) is defined as the amount of inhibitor which inhibits two saccharase units to the extent of 50%. One saccharase unit (SU) is the amount of enzyme which under the test conditions specified splits 1 μmol of sucrose to glucose and fructose per minute. The μmols of glucose formed are determined quantitatively by means of the glucose oxidase reaction under conditions under which a further splitting of the sucrose by the saccharase no longer takes place. To carry out the test, 0.05 ml of solubilized saccharase [from the mucous membrane of the small intestine of the pig, according to B. Borgstrom, A. Dahlquist, Acta Chem. Scand. […] The mixture is equilibrated for 10 minutes at 35° C and 0.1 ml of an 0.05 M sucrose solution in 0.1 m sodium maleate buffer of pH 6.0, pre-warmed to 35° C, is then added. The mixture is incubated for 20 minutes at 35° C, the saccharase reaction is stopped by addition of 1 ml of glucose oxidase reagent, and the incubation is continued for a further 30 minutes at 35° C. […] Thereafter, 1 ml of 50% strength H2 SO4 is added and a measurement carried out at 545 nm against a corresponding blank.

For series [3], the target named is T2, pancreas-α-amylase (Sus scrofa, UniProt P00690).
T2 sequence (P00690 16-511): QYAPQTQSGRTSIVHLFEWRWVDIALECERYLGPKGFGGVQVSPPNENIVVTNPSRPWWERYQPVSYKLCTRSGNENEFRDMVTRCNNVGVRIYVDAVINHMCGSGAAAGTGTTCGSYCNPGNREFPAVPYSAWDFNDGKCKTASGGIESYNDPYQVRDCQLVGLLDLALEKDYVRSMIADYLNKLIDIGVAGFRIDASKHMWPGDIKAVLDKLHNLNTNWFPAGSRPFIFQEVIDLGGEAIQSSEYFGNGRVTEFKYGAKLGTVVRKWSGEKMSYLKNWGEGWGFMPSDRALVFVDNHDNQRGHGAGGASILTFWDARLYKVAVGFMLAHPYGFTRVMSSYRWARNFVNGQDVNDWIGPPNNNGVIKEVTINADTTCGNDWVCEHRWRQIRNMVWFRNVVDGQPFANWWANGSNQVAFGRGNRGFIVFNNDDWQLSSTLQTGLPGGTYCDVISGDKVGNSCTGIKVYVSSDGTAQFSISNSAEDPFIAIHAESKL
As to the kind of experiment: In vitro amylase test. In kind it is biochemical. Particulars: isolated product; starch, pH 6.9, 35° C. The method, then: One amylase unit (AU) is the amount of enzyme which under the test conditions specified below splits 1 μequivalent of glucoside bonds in the starch per minute. […] To carry out the test, 0.1 ml of amylase solution (20-22 AU/ml) are mixed with 0-10 μg of inhibitor or 0-20 μl of the solution to be tested in 0.4 ml of 0.02 M sodium glycerophosphate buffer/0.001 M CaCl2, pH 6.9, and the mixture is equilibrated for 10-20 minutes in a water bath at 35° C. […] To develop the color, the batch is heated for 5 minutes on a boiling water bath and then cooled, and 10 ml of distilled water are added. The extinction at 540 nm is measured against a correspondingly made-up blank without amylase. […] The percentage inhibition is plotted as a function of the quotient [formula]

Series [4] has as its system starch digestion. Kind of series: In vivo starch digestion (starch feeding test).

T1 sequence (P56729 with tags, fused parts or gaps limits assumed): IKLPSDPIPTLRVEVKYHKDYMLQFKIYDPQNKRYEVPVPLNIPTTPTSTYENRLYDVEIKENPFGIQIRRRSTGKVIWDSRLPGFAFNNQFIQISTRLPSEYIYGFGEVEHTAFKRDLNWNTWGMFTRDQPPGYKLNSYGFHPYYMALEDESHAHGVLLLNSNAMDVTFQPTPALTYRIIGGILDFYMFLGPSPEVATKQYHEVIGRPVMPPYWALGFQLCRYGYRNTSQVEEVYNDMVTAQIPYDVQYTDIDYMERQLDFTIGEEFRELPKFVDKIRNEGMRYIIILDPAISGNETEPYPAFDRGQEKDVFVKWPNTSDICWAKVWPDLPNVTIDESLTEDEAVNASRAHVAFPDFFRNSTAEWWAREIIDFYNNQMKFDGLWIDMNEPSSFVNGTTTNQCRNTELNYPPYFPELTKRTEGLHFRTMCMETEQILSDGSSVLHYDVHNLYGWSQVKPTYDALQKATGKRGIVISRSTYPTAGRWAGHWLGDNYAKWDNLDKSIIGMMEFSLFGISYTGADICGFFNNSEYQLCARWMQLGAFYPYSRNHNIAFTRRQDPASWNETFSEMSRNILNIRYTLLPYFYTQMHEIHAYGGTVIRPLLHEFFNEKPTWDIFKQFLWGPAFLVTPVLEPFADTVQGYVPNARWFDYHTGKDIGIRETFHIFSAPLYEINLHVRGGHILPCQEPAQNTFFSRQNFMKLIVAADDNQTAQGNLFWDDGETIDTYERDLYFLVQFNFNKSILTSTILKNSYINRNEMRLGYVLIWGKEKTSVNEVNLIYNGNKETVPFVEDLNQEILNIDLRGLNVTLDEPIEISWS
T1 sequence (P56729 with tags, fused parts or gaps partner limits assumed): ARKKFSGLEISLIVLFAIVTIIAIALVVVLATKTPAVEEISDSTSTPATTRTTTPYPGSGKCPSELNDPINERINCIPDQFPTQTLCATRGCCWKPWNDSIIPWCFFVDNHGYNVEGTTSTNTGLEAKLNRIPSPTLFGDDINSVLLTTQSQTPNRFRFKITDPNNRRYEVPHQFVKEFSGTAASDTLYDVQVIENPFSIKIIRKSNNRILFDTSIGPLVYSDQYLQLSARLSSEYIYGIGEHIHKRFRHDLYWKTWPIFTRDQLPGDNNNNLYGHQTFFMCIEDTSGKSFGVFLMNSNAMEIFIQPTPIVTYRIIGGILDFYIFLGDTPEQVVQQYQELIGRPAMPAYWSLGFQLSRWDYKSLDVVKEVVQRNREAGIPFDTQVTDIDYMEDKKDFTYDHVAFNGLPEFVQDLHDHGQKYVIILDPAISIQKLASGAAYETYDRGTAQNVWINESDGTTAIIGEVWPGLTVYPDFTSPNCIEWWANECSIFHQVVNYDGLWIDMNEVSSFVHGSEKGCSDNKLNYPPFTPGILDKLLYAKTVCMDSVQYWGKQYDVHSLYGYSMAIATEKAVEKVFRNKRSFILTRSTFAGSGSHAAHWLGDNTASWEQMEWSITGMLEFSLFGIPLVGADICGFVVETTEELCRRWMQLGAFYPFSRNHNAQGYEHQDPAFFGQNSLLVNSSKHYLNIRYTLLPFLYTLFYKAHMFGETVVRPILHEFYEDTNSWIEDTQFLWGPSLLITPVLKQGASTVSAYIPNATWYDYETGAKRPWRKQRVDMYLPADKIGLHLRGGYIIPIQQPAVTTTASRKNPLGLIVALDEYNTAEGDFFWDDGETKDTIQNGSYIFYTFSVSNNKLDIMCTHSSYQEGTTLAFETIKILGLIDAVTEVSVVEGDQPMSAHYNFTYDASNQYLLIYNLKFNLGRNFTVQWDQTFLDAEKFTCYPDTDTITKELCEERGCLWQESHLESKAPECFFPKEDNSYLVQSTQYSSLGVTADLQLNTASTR

On to `C[C@H]1O[C@H](O[C@H]2[C@H](O)[C@@H](O)[C@@H](O[C@H]3[C@H](O)[C@@H](O)C(O)O[C@@H]3CO)O[C@@H]2CO)[C@H](O)[C@@H](O)[C@@H]1N[C@H]1C=C(CO)[C@@H](O)[C@H](O)[C@H]1O` (stereo partly drawn) [compound having 2 glucose units, O-{4,6-bisdesoxy-4-[1 S-(1,4,6/5)-4,5,6-trihydroxy-3-hydroxymethylcyclohex-2-en-1-ylamino]-α-D-glucopyranosyl}-(1→4)-O-α-D-glucopyranosyl-(1→4)-D-glucopyranose], for which, in series [1] (amorphous solid), the solubility in water entry is “readily water-soluble”. Besides, in series [2] (in vitro), the “in vitro saccharase inhibition (in words)” value is “most pronounced”. Also, the “saccharase inhibitor specific activity” value in series [2] is 50,000 SIU/g; in series [2] (listed as compound with 2 glucose units) it was 60,000 SIU/g; in series [2] (listed as compound with 2 units) it was 68,000 SIU/g; in series [2] (listed as compound with two glucose units) it was 65,000 SIU/g. Moreover, the “amylase inhibitor specific activity” value in series [3] is on record as 0.3 × 10^6 AIU/g. The “in vivo inhibition of starch digestion (in words)” value in series [4] is reported as “much higher than would be expected from in vitro amylase inhibition”.

As to `C[C@H]1O[C@H](O[C@H]2[C@H](O)[C@@H](O)[C@@H](O[C@H]3[C@H](O)[C@@H](O)[C@@H](O[C@H]4[C@H](O)[C@@H](O)C(O)O[C@@H]4CO)O[C@@H]3CO)O[C@@H]2CO)[C@H](O)[C@@H](O)[C@@H]1N[C@H]1C=C(CO)[C@@H](O)[C@H](O)[C@H]1O` (stereo partly drawn) [isomer of Formula V, O-{4,5-bisdesoxy-4-[1S-(1,4,6/5)-4,5,6-trihydroxy-3-hydroxymethylcyclohex-2-en-1-ylamino]-α-D-glucopyranosyl}-(1→4)-O-α-D-glucopyranosyl-(1→4)-O-α-D-glucopyranosyl-(1→4)-D-glycopyranose], in series [2] (isomer isolated on Dowex 50 W X 4), the “in vitro saccharase inhibiting activity” value is 19,000 SIE/g.

With `C[C@H]1O[C@H](O[C@H]2[C@H](O)[C@@H](O)C(O)O[C@@H]2CO)[C@H](O)[C@@H](O)[C@@H]1N[C@H]1C=C(CO)[C@@H](O)[C@H](O)[C@H]1O` (stereo partly drawn) [compound having one glucose unit, O-{4,6-bisdesoxy-4-[1 S-(1,4,6/5)-4,5,6-trihydroxy-3-hydroxymethylcyclohex-2-en-1-ylamino]-α-D-glucopyranosyl}-(1→4)-D-glucopyranose], in series [1] (water, dimethylformamide, dimethylsulfoxide, methanol and hot ethanol), the solubility result is “good solubility”. Further, the “saccharase inhibition relative to the derivative having two units” value in series [2] (in vitro) is recorded as “only half as much”. For the same compound, the “saccharase inhibitor specific activity” value is given as 30,000 SIU/g in series [2] and 35,000 SIU/g in series [2] (listed as compound with one glucose unit). Moreover, the “amylase inhibitor specific activity” value in series [3] was 0.3 × 10^6 AIU/g. For the same compound, in series [4], the “in vivo inhibition of starch digestion (in words)” value was “much higher than would be expected from in vitro amylase inhibition”.
